Results on two compounds are retold here after patent publication US20040209318A1, “Reagents and methods for the detection and quantification of vancomycin in bilogical fluids” (priority 1995, published 2004).

Data set [1] has as its target anti-vancomycin Fab fragment. In words: BIAcore solution competition, equilibrium dissociation constant. It counts as binding, mouse. As for the experimental part:
Biosensor surfaces were regenerated after each injection with successive 1 minute pulses of 6 M, 6M, and 1.5 M guanidine hydrochloride. Initial rates of binding of anti-vancomycin Fab fragment to the biosensor surface were measured over a 15 second window beginning 20 seconds postinjection. Data was evaluated by non-linear regression analysis using the solution affinity model built into BIAevaluation 3.0 software (BIAcore, Inc).
The binding affinities of several vancomycin analogs and tracers for anti-vancomycin Fab fragment were determined from solution competition experiments carried out on a BIAcore 2000. Initially, known concentrations of anti-vancomycin Fab fragment (0-22 nM) were injected over the aminoalkyl vancomycin biosensor surface. The initial rate of binding for each anti-vancomycin Fab fragment concentration was obtained by averaging the observed binding rate over a […] window beginning 20 seconds post injection. Data from the first 20 seconds of each sensorgram were omitted due to sample dispersion effects at the start of injections. A plot of initial binding rate versus concentration of anti-vancomycin Fab fragment was fit using a 4-parameter logistic (general model in BIAevaluation 3.0) providing a standard curve. […] A fixed concentration of anti-vancomycin Fab fragment (20 nM) was then mixed with twelve concentrations of each vancomycin analog or tracer and allowed to reach equilibrium. The equilibrium mixtures were individually injected over the aminoalkyl vancomycin biosensor surface, and the concentration of free anti-vancomycin Fab fragment remaining was quantitated by determination of the initial rate of binding to the biosensor surface as described above. A plot of free anti-vancomycin Fab fragment versus total concentration of added analog or tracer provides a competition curve. […] The data points represent the experimentally determined concentrations of free anti-vancomycin Fab fragment in equilibrium solutions at a given concentration of soluble analog or tracer. The curves represent the best nonlinear fit of the data using equation 1 (solution affinity model in BIAevaluation software) below: [formula]
where Fabτ is the concentration of free anti-vancomycin Fab fragment in equilibrium solutions, Fabτ is the total concentration of anti-vancomycin Fab fragment in solution (20 nM), A is the total concentration of added vancomycin analog or tracer, and KD is the equilibrium dissociation constant for the binding of the vancomycin analog or tracer to anti-vancomycin Fab fragment in solution.
On the technique in general: SPR reads the build-up and loss of mass on a sensor chip optically.

Data set [2] has as its system anti-vancomycin Fab fragment. The note with it: substance immobilized on CM-5 sensor chip.
Protocol: (§1) Briefly, a continuous flow of HBS buffer at 10 μL/minute was initiated over the biosensor surface. The carboxymethylated dextran matrix on the sensor surface was activated by a 3.5 minute injection of a solution of 0.05 M HNS and 0.2 M EDAC. […] Blank surfaces were generated under identical conditions omitting the ligand immobilization step.
Initial attempts to generate a biosensor surface involved immobilization of vancomycin to the activated carboxymethyl dextran surface of a CM-5 sensor chip through the primary amine of the vancosamine sugar moiety.
For data set [3] the following is noted: cited from earlier work.
The conditions of data set [4]: 0.5 μM.
Protocol: as §1
For these studies, an (N^ε-acetyl)KDADA tripeptide containing an aminocaproate linker from the amino terminus was immobilized via amine coupling to an activated carboxymethyl dextran surface of a CM-5 sensor chip.
Setting [5] is: in solution, 20 nM Fab fragment, read-out: Equilibrium Dissociation Constant (KD).

Where two headings read alike, the source gives them in different places. Some results are limits rather than exact numbers.

With AglucoCDP [compound 11], in data set [1] (setting [5]), the Kd (commonly the constant that tells how readily two partners part at equilibrium) is at least 50000 nM.

Turning to `CN[C@H](CC(C)C)C(=O)N[C@H]1C(=O)N[C@@H](CC(N)=O)C(=O)N[C@H]2C(=O)N[C@H]3C(=O)N[C@H](C(=O)N[C@H](C(=O)O)c4cc(O)cc(O)c4-c4cc3ccc4O)[C@H](O)c3ccc(c(Cl)c3)Oc3cc2cc(c3O[C@@H]2O[C@H](CO)[C@@H](O)[C@H](O)[C@H]2O[C@H]2C[C@](C)(N)[C@H](O)[C@H](C)O2)Oc2ccc(cc2Cl)[C@H]1O` [vancomycin (1), vancomycin], the Kd was at most 0.2 nM in data set [1] (setting [5]) and at most 0.2 nM in data set [1] (in the presence of (Nα,Nε-diacetyl)KDADA tripeptide (500 μM), read-out: KD). The “binding capacity (Rumax) of biosensor surface” value in data set [2] was “minimal binding capacity”. The half life in data set [3] (normal patients) is 5 to 11 h; in data set [3] (patients with renal insufficiency), 48 to 120 h. Besides, the “instrumental response at equilibrium” value in data set [4] is recorded as “approximately 50 Rus”.
